Measurements from PMC8752738, “A propolis-derived small molecule ameliorates metabolic syndrome in obese mice by targeting the CREB/CRTC2 transcriptional complex” (Nature Communications, 2022).
Several values for one entry are separate records, joined by “and”; a condition that tells them apart may be missing. Equal values may be shown once. Entries after “also recorded” stand apart in the source; their conditions may differ.

Key:
Metabolic chamber assay = type: in vivo, mouse; parameters: AUC of RER / AUC of RER, group mean: unit not given beside the values; conditions: for RER of DIO: DIO ip APC, single animals
Description: Metabolic parameters of mice were determined using Columbus Instruments Comprehensive Lab Animal Monitoring System (CLAMS). The area unit under the curve (AUC) of respiratory exchange ratio (RER) and ambulatory activity (X-TOT) were calculated using Graphpad prism 8.0.

CREB-CRTC2 interaction = target: T1, CREB-CRTC2 interaction (Homo sapiens, UniProt P16220); experiment: CREB–CRTC2 mammalian two-hybrid assay (GAL4-Luc reporter); type: cell-based; parameters: CREB/CRTC2 -luc activity %: concentration or dose not given beside the values; conditions: for relative Gal4-luc activity %: Fig 3b replicates
T1 construct: expressed in transfected cells; host or cells: HEK293T
T1 sequence (P16220 whole entry, the tested form may be a part): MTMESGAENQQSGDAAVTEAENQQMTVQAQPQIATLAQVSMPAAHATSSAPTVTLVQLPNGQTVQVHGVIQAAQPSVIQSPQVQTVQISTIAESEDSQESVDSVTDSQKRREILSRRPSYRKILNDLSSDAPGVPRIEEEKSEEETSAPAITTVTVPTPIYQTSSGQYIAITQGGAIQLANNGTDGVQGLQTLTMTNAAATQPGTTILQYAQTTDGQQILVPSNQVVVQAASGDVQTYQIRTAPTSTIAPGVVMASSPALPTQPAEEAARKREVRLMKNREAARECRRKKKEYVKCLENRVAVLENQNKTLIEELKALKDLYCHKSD

LXRα = experiment: Immunoblot of LXRα in insulin-stimulated primary hepatocytes; type: cell-based, mouse; conditions: for relative LXRa protein: individual replicates, Supp. Fig.6 b; for relative LXRa protein, mean: N=3
Description: 3 Supplementary Figure 6. APC inhibited transcription induced by half-CRE in the promoters of
5 a) Immunoblot of LXRa protein levels in primary hepatocytes stimulated with insulin (100 nM) for
6 indicated times (0–18 h). One presentative result from three experiments is shown here. Relative
7 LXRa protein level normalized to GAPDH shown as a bar graph (b). Data are represented as
8 mean ± SEM (n=3 per treatment). *, p < 0.05; **, p < 0.01; p values were determined by two-way […]
(1 picture or pasted object on this page, not shown here)

CC(C)=CCc1cc(C=CC(=O)O)cc(CC=C(C)C)c1O [APC, 3,5-diprenyl-4-hydroxycinnamic acid]
RER of DIO (Metabolic chamber assay; interval 60, hour 22.0): 0.787 and 0.839 and 0.786 and 0.789
RER of DIO (Metabolic chamber assay; interval 61, hour 22.4): 0.78 and 0.845 and 0.792 and 0.77
RER of DIO (Metabolic chamber assay; interval 62, hour 22.7): 0.799 and 0.852 and 0.77 and 0.81
RER of DIO (Metabolic chamber assay; interval 63, hour 23.1): 0.815 and 0.784 and 0.793 and 0.796
RER of DIO (Metabolic chamber assay; interval 64, hour 23.5): 0.868 and 0.804 and 0.79 and 0.793
RER of DIO (Metabolic chamber assay; interval 65, hour 23.8): 0.88 and 0.841 and 0.837 and 0.825
RER of DIO (Metabolic chamber assay; interval 66, hour 24.2): 0.846 and 0.879 and 0.838 and 0.813
RER of DIO (Metabolic chamber assay; interval 67, hour 24.6): 0.838 and 0.875 and 0.807 and 0.8
RER of DIO (Metabolic chamber assay; interval 68, hour 24.9): 0.86 and 0.913 and 0.847 and 0.857
RER of DIO (Metabolic chamber assay; interval 69, hour 25.3): 0.873 and 0.865 and 0.838 and 0.896
RER of DIO (Metabolic chamber assay; interval 70, hour 25.7): 0.843 and 0.89 and 0.8 and 0.847
AUC of RER (Metabolic chamber assay; WT mice, individual mice): 64.64 and 64.37 and 63.27 and 66.85
Twenty-four hours respiratory exchange ratio (RER) (Metabolic chamber assay; WT mice, individual mice, reading 6): 0.933 and 0.928 and 0.895 and 0.97
Twenty-four hours respiratory exchange ratio (RER) (Metabolic chamber assay; WT mice, individual mice, reading 7): 0.939 and 0.96 and 0.973 and 0.974
Twenty-four hours respiratory exchange ratio (RER) (Metabolic chamber assay; WT mice, individual mice, reading 8): 0.918 and 0.961 and 0.922 and 0.982
Twenty-four hours respiratory exchange ratio (RER) (Metabolic chamber assay; WT mice, individual mice, reading 9): 0.913 and 0.964 and 0.926 and 0.986
Twenty-four hours respiratory exchange ratio (RER) (Metabolic chamber assay; WT mice, individual mice, reading 10): 0.969 and 0.971 and 0.952 and 0.978
Twenty-four hours respiratory exchange ratio (RER) (Metabolic chamber assay; WT mice, individual mice, reading 11): 0.955 and 0.975 (2×) and 0.936
Twenty-four hours respiratory exchange ratio (RER) (Metabolic chamber assay; WT mice, individual mice, reading 12): 0.989 and 0.966 and 0.963 and 1.016
Twenty-four hours respiratory exchange ratio (RER) (Metabolic chamber assay; WT mice, individual mice, reading 13): 0.967 and 0.988 and 0.98 and 0.99
Twenty-four hours respiratory exchange ratio (RER) (Metabolic chamber assay; WT mice, individual mice, reading 14): 0.975 and 0.999 and 0.954 and 1.005
Twenty-four hours respiratory exchange ratio (RER) (Metabolic chamber assay; WT mice, individual mice, reading 15): 0.988 and 0.994 and 0.959 and 0.969
Twenty-four hours respiratory exchange ratio (RER) (Metabolic chamber assay; WT mice, individual mice, reading 16): 1.003 and 0.991 and 0.965 and 0.97
Twenty-four hours respiratory exchange ratio (RER) (Metabolic chamber assay; WT mice, individual mice, reading 17): 1.006 and 0.99 and 0.951 and 0.989
Twenty-four hours respiratory exchange ratio (RER) (Metabolic chamber assay; WT mice, individual mice, reading 18): 0.963 and 0.961 and 0.974 and 1.025
Twenty-four hours respiratory exchange ratio (RER) (Metabolic chamber assay; WT mice, individual mice, reading 19): 0.958 and 0.976 and 0.946 and 1.032
Twenty-four hours respiratory exchange ratio (RER) (Metabolic chamber assay; WT mice, individual mice, reading 20): 0.939 and 0.961 and 1.004 and 1.024
Twenty-four hours respiratory exchange ratio (RER) (Metabolic chamber assay; WT mice, individual mice, reading 21): 0.991 and 1.018 and 0.961 and 0.993
Twenty-four hours respiratory exchange ratio (RER) (Metabolic chamber assay; WT mice, individual mice, reading 22): 0.946 and 0.962 and 0.958 and 0.989
Twenty-four hours respiratory exchange ratio (RER) (Metabolic chamber assay; WT mice, individual mice, reading 23): 0.971 and 1.012 and 0.999 and 0.985
Twenty-four hours respiratory exchange ratio (RER) (Metabolic chamber assay; WT mice, individual mice, reading 24): 1.006 and 0.997 and 0.993 and 1.002
Twenty-four hours respiratory exchange ratio (RER) (Metabolic chamber assay; WT mice, individual mice, reading 25): 0.971 and 0.965 and 0.961 and 0.984
Twenty-four hours respiratory exchange ratio (RER) (Metabolic chamber assay; WT mice, individual mice, reading 26): 0.941 and 0.984 and 1.005 and 0.996
Twenty-four hours respiratory exchange ratio (RER) (Metabolic chamber assay; WT mice, individual mice, reading 27): 0.981 and 0.968 and 0.989 and 0.998
Twenty-four hours respiratory exchange ratio (RER) (Metabolic chamber assay; WT mice, individual mice, reading 28): 0.956 and 0.954 and 0.968 and 0.984
Twenty-four hours respiratory exchange ratio (RER) (Metabolic chamber assay; WT mice, individual mice, reading 29): 0.975 and 0.977 and 0.994 and 1.026
Twenty-four hours respiratory exchange ratio (RER) (Metabolic chamber assay; WT mice, individual mice, reading 30): 0.994 and 0.963 and 1.014 and 1.033
AUC of RER, group mean (Metabolic chamber assay; WT mice, n=4): 64.78
respiratory exchange ratio (RER) and energy expenditure (Metabolic chamber assay; db/db mice): significantly elevated
remaining activity at 1000 µM (CREB-CRTC2 interaction; 16 h, Figure 9b, Log10(M) -3, single replicates, read-out: Gal4-LUC reporter activiry, %): 0.439%
remaining activity at 100 µM (CREB-CRTC2 interaction; 16 h, Figure 9b, Log10(M) -4, single replicates, read-out: Gal4-LUC reporter activiry, %): 0.257%
remaining activity at 1 µM (CREB-CRTC2 interaction; 16 h, Figure 9b, Log10(M) -6, single replicates, read-out: Gal4-LUC reporter activiry, %): 36.2%
remaining activity at 0.1 µM (CREB-CRTC2 interaction; 16 h, Figure 9b, Log10(M) -7, single replicates, read-out: Gal4-LUC reporter activiry, %): 71.6%
remaining activity at 0.01 µM (CREB-CRTC2 interaction; 16 h, Figure 9b, Log10(M) -8, single replicates, read-out: Gal4-LUC reporter activiry, %): 92.8%
remaining activity at 0.001 µM (CREB-CRTC2 interaction; 16 h, Figure 9b, Log10(M) -9, single replicates, read-out: Gal4-LUC reporter activiry, %): 74.9%
remaining activity at 0.0001 µM (CREB-CRTC2 interaction; 16 h, Figure 9b, Log10(M) -10, single replicates, read-out: Gal4-LUC reporter activiry, %): 102%
relative Gal4-luc activity % (CREB-CRTC2 interaction; APC Log10(M) -3): 0.3266% and 0.2637% and 0.3128%
relative Gal4-luc activity % (CREB-CRTC2 interaction; APC Log10(M) -4): 10.2018% and 10.3248% and 10.277%
relative Gal4-luc activity % (CREB-CRTC2 interaction; APC Log10(M) -5): 61.3194% and 69.9978% and 76.9726%
relative Gal4-luc activity % (CREB-CRTC2 interaction; APC Log10(M) -6): 65.67% and 82.3932% and 92.7658%
relative Gal4-luc activity % (CREB-CRTC2 interaction; APC Log10(M) -7): 64.5839% and 85.9224% and 107.618%
relative Gal4-luc activity % (CREB-CRTC2 interaction; APC Log10(M) -8): 99.4977% and 99.5841% and 100.918%
relative Gal4-luc activity % (CREB-CRTC2 interaction; APC Log10(M) -9): 107.021% and 111.522% and 103.779%
Relative Gal4-LUC activity, single replicates (CREB-CRTC2 interaction; Figure 1f, CREB-CRTC2 two-hybrid assay, DMSO control about 100, listed as P3): 21.4874 and 38.8421 and 27.0437
reporter activity of CREB–CRTC2 two-hybrid assay (CREB-CRTC2 interaction; HEK293T, isolated compound 25 μM, listed as P3): significantly inhibited; also recorded: most potent
Related Gal4-luc % (CREB-CRTC2 interaction; Supp. Fig.10 a, individual replicates, Ctrl about 97): 42.290% and 38.150% and 46.110% and 51.003%
Related Gal4-luc %, group mean (Test details, Mean 2) (CREB-CRTC2 interaction; Supp. Fig.10 a, mean of n=4, CTRL mean 96.58): 44.39%
CREB/CRTC2 -luc activity % (CREB-CRTC2 interaction; Supp. Fig.10 b, individual replicates, Ctrl about 100): 51.481% and 56.411% and 65.126%
IC50 (CREB-CRTC2 interaction; cell-based two-hybrid assay, HEK293T cells, read-out: IC50 for disrupting CREB–CRTC2 interaction): ~24.5 µM and 24.5 µM
relative LXRa protein (LXRα; Insulin 0h): 101.09 and 100.00 and 97.00
relative LXRa protein, mean (LXRα; Insulin 0h): 99.36
relative LXRa protein (LXRα; Insulin 3h): 65.50 and 69.00 and 75.00
relative LXRa protein, mean (LXRα; Insulin 3h): 69.83
relative LXRa protein, Mean Diff. 3h vs. 0h (LXRα; Insulin 3h minus 0h, within APC group): -29.53
relative LXRa protein (LXRα; Insulin 18h): 33.42 and 31.00 and 29.00
relative LXRa protein, mean (LXRα; Insulin 18h): 31.14
relative LXRa protein, Mean Diff. 18h vs. 0h (LXRα; Insulin 18h minus 0h, within APC group): -68.22
LXRα protein levels (LXRα; primary hepatocytes, insulin treatment 18-h): significantly reduced
